Tested on: FN−/−fibroblasts
Assay type: cell-based, mouse
Settings: Rho experiment: substrate 120 kDa CBD of fibronectin; substance added as supplement (Figs 5B-5D)

With Lysophosphatidic acid [LPA] the “% of attached cells that assemble focal adhesions and actin stress fibers (spread morphology)” value was 95%.

Reference: patent US6566074B1, “Methods of modulating cell attachment and migration” (The General Hospital Corporation, priority 1999, dated 2003)
